Data on 1 compound can be found in BindingDB's records for PubMed 1828505 (University of Pennsylvania, 1991).

SMILES strings stand for the structures. Several values for one entry are separate records, joined by “and”; a condition that tells them apart may be missing. Equal values may be shown once.

The target of this test is D(2) dopamine receptor (Homo sapiens, UniProt P14416).
Chain of D(2) dopamine receptor (P14416 whole entry): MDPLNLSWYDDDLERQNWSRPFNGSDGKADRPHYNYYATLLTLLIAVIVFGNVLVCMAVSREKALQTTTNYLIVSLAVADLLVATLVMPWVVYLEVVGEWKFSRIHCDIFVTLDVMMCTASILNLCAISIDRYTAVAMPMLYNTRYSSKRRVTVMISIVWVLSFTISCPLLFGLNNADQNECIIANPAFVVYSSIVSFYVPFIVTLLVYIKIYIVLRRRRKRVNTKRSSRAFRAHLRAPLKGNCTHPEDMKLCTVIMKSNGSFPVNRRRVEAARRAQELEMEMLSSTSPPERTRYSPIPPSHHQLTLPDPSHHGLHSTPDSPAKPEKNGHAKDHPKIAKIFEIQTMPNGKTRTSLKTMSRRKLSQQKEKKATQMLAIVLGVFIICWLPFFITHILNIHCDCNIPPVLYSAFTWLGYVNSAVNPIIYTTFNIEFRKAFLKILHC

What is called Ki is a dissociation constant, usually derived from enzyme kinetics or from competition with a known ligand. A high value points to lower affinity. Consider `OCCN1CCN(CC/C=C2/c3ccccc3Sc3ccc(C(F)(F)F)cc32)CC1` [(cis) 2-{4-[3-(2-Trifluoromethyl-thioxanthen-9-ylidene)-propyl]-piperazin-1-yl}-ethanol(Flupentixol)], for which the Ki is 0.6 nM and 2.3 nM and 0.66 nM and 0.73 nM and 2.5 nM.
